Measurements as given in patent US20200288710A1, “SUBSTITUTED SULPHONAMIDES FOR CONTROLLING ANIMAL PESTS” (BAYER CROPSCIENCE AKTIENGESELLSCHAFT, priority 2016, published 2020).

What was measured:
Type in all cases: in vivo
Myzus persicae [1] = assay: Myzus persicae spray test (Chinese cabbage leaf discs); conditions: foliar, 120 h, after 5-6 days, read-out: efficacy
Outline: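 Formulated compound in acetone/dimethylformamide, diluted in water with 1000 ppm emulsifier, was sprayed onto Brassica pekinensis leaf discs carrying mixed-stage Myzus persicae. Percent mortality was read 5-6 days later (0% = no aphids killed, 100% = all killed).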

Myzus persicae [2] = assay: Myzus persicae oral test; conditions: 120 h, 20 ppm, oral uptake, after 5 days, read-out: efficacy
Outline: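 Aphids of mixed ages imbibe, through parafilm, compound solution (acetone stock, water-diluted) combined with sugar-supplemented IPL41 medium to 200 μl. Efficacy read at day 5 as percent killed, 0% meaning no deaths.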

Meloidogyne incognita = Meloidogyne incognita test; conditions: 336 h, lettuce, after 14 days, read-out: nematicidal efficacy (formation of galls)
Outline: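 Gall formation on lettuce roots scored after 14 days: 0% means gall count equals untreated control, 100% means none. Sand vessels held the compound (acetone concentrate diluted in water), southern root-knot nematode egg/larvae suspension and lettuce seeds.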

Structure (SMILES) | pest or weed control at 500 g/ha (Myzus persicae [1]) | pest or weed control at 20 ppm (Myzus persicae [2]) | pest or weed control at 20 ppm (Meloidogyne incognita) | pest or weed control at 100 g/ha (Myzus persicae [1]; 100 g/ha)
CCn1cc(C(=O)NS(=O)(=O)c2ccccc2Cl)nc1-c1ccccc1Cl [Example 67] | 90% | 100% | 90% | 
Cn1cc(C(=O)NS(=O)(=O)c2ccc(Br)cc2Cl)nc1-c1c(F)cccc1F [Example 440] | 100% | 100% | 100% | 
COc1cc(C(=O)NS(=O)(=O)c2ccccc2Cl)nn1-c1ccccc1Cl [Example 275] | 90% | 100% | 100% | 
Cc1[nH]c(-c2ccccc2Cl)nc1C(=O)NS(=O)(=O)c1ccccc1Cl [Example 238] | 100% | 100% | 100% | 
Cn1nc(C(=O)NS(=O)(=O)c2ccccc2Br)nc1-c1c(F)cccc1F [Example 158] | 100% | 100% | 90% | 
COc1ccc(Cl)c(S(=O)(=O)NC(=O)c2cn(C)c(-c3ccccc3C)n2)c1 [Example 98] | 90% | 100% | 90% | 
Cn1cc(C(=O)NS(=O)(=O)c2sccc2Br)nc1-c1c(F)cccc1F [Example 354] | 100% | 100% | 90% | 
Cc1cc(C(=O)NS(=O)(=O)c2ccccc2Br)nn1-c1ncccc1Br [Example 296] | 90% | 90% | 90% | 
CC(C)S(=O)(=O)NC(=O)c1nc(-c2ccccc2Cl)n(C)c1Cl [Example 206] | 100% | 90% | 100% | 
Cc1cc(C(=O)NS(=O)(=O)c2ccccc2Cl)nn1-c1c(F)cccc1F [Example 1] | 100% | 100% | 100% | 
COc1ccc(C)c(S(=O)(=O)NC(=O)c2cn(C)c(-c3ncccc3F)n2)c1 [Example 593] | 100% | 100% | 90% | 
O=C(NS(=O)(=O)c1c(Cl)cccc1Cl)c1cc(-c2ncccc2Cl)n(-c2ccccc2Cl)n1 [Example 266] | 90% | 100% | 90% | 
Cn1cc(C(=O)NS(=O)(=O)c2ccccc2Cl)nc1-c1cc(F)ccc1F [Example 515] | 90% | 100% | 90% | 
Cn1cc(C(=O)NS(=O)(=O)c2ccc(Cl)cc2)nc1-c1c(F)cccc1Cl [Example 114] | 90% | 100% | 100% | 
Cn1cc(C(=O)NS(=O)(=O)c2c(Cl)cccc2Cl)nc1-c1ccccc1F [Example 96] | 100% | 100% | 100% | 
Cn1cc(C(=O)NS(=O)(=O)c2cccc(Cl)c2Cl)nc1-c1ccccc1Cl [Example 38] | 90% | 100% | 100% | 
Cc1cc(F)ccc1S(=O)(=O)NC(=O)c1cn(C)c(-c2c(F)cccc2F)n1 [Example 444] | 90% | 100% | 100% | 
Cc1ccccc1-c1nc(C(=O)NS(=O)(=O)c2ccccc2C)cn1C [Example 29] | 100% | 100% | 90% | 
Cc1ccccc1S(=O)(=O)NC(=O)c1cc(C)n(-c2ccccc2Cl)n1 [Example 272] | 100% | 100% | 100% | 
Cn1cc(C(=O)NS(=O)(=O)c2ccc(Cl)cc2)nc1-c1ccccc1F [Example 51] | 90% | 90% | 100% | 
Cn1cc(C(=O)NS(=O)(=O)c2c(Cl)cccc2Br)nc1-c1ncccc1F [Example 595] | 90% | 100% | 90% | 
COc1ccc(Br)c(S(=O)(=O)NC(=O)c2cn(C)c(-c3cccc(Cl)c3Cl)n2)c1 [Example 557] | 90% | 100% | 90% | 
Cn1cc(C(=O)NS(=O)(=O)c2sccc2Br)nc1-c1ccccc1Cl [Example 421] | 100% | 100% | 90% | 
CCn1cc(C(=O)NS(=O)(=O)c2ccccc2)nc1-c1ccccc1Cl [Example 41] | 90% | 90% | 90% | 

Structure (SMILES) | pest or weed control at 500 g/ha (Myzus persicae [1]) | pest or weed control at 20 ppm (Myzus persicae [2]) | pest or weed control at 20 ppm (Meloidogyne incognita) | pest or weed control at 100 g/ha (Myzus persicae [1]; 100 g/ha)
Cn1cc(C(=O)NS(=O)(=O)c2cccc3c2OC(F)(F)C(F)(F)O3)nc1-c1c(F)cccc1F [Example 312] | 90% | 100% | 90% | 
Cn1cc(C(=O)NS(=O)(=O)c2ccc(F)cc2Br)nc1-c1c(F)cccc1F [Example 438] | 100% | 90% | 90% | 
Cc1ccsc1S(=O)(=O)NC(=O)c1cn(C)c(-c2c(F)cccc2F)n1 [Example 184] | 90% | 100% | 100% | 
Cn1nc(C(=O)NS(=O)(=O)c2c(Cl)cccc2Cl)nc1-c1c(F)cccc1F [Example 13] | 100% | 100% | 90% | 
Cc1c(C(=O)NS(C)(=O)=O)nc(-c2ccccc2Cl)n1C [Example 71] | 90% | 100% | 90% | 
Cn1cc(C(=O)NS(=O)(=O)c2ccccc2Cl)nc1-c1ncccc1F [Example 499] | 100% | 100% | 90% | 
Cn1cc(C(=O)NS(=O)(=O)c2cccc3ccn(C)c23)nc1-c1c(F)cccc1F [Example 323] | 100% | 100% | 90% | 
Cn1cc(C(=O)NS(=O)(=O)c2c(Cl)cccc2C(F)(F)F)nc1-c1c(F)cccc1F [Example 372] | 100% | 100% | 90% | 
COc1ccc(Cl)c(S(=O)(=O)NC(=O)c2cn(C)c(-c3cccc(Cl)c3Cl)n2)c1 [Example 554] | 90% | 100% | 90% | 
Cc1noc(C)c1S(=O)(=O)NC(=O)c1cn(C)c(-c2c(F)cccc2F)n1 [Example 358] | 100% | 100% | 90% | 
Cn1cc(C(=O)NS(=O)(=O)c2c(Cl)cccc2C(F)(F)F)nc1-c1ncccc1Cl [Example 600] | 100% | 100% | 100% | 
CCc1ccccc1S(=O)(=O)NC(=O)c1cn(C)c(-c2cccc(Cl)c2Cl)n1 [Example 553] | 100% | 100% | 90% | 
Cn1cc(C(=O)NS(=O)(=O)c2ccccc2Cl)nc1-c1cccc(Cl)c1Cl [Example 513] | 100% | 100% | 100% | 
Cc1cc(C(=O)NS(=O)(=O)c2ccccc2Cl)nn1-c1ccccc1Cl [Example 271] | 100% | 100% | 100% | 
Cn1cc(C(=O)NS(=O)(=O)c2cccc(Cl)c2)nc1-c1c(F)cccc1F [Example 45] | 90% | 90% | 100% | 
Cn1cc(C(=O)NS(=O)(=O)c2c(Cl)cccc2Cl)nc1-c1c(F)cccc1F [Example 93] | 90% | 100% | 90% | 
Cn1nc(C(=O)NS(=O)(=O)c2ccccc2Cl)nc1-c1ccccc1Cl [Example 14] | 90% | 100% | 90% | 
Cc1ccccc1S(=O)(=O)NC(=O)c1cn(C)c(-c2ncccc2F)n1 [Example 500] | 100% | 100% | 90% | 
CCc1[nH]c(-c2cccc(C(C)C)c2)nc1C(=O)NS(=O)(=O)c1ccccc1Cl [Example 613] |  | 100% | 90% | 90%
Cc1csc(S(=O)(=O)NC(=O)c2cn(C)c(-c3c(F)cccc3F)n2)c1 [Example 350] | 100% | 90% | 90% | 
Cn1cc(C(=O)NS(=O)(=O)c2c(Cl)cccc2Cl)nc1-c1ncccc1Cl [Example 588] | 90% | 100% | 90% | 
Cn1cc(C(=O)NS(=O)(=O)c2cccc(Cl)c2)nc1-c1ccccc1Cl [Example 33] | 90% | 100% | 100% | 
COc1cc(C(=O)NS(=O)(=O)c2c(Cl)cccc2Cl)nn1-c1ccccc1Cl [Example 270] | 90% | 100% | 100% | 
